From ChEMBL document CHEMBL1201862, “PubChem BioAssay data set” (2004)
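1) Cells in 96-well plates. 2) Compound, 48 h, 5 concentrations. 3) Linear interpolation between surrounding doses. 4) Unreached endpoint = highest concentration. At the GI50, growth is halved.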 Calls of active or inactive are those of the source. Rule as the data show it: active = GI50 up to about 1.1 µM and inactive = higher. Square brackets hold non-standard residues; d marks the D form. Peptide text beside a SMILES is read from it. * marks the point of attachment. Boc = CC(C)(C)OC(=O)*; OBn = c1ccc(CO*)cc1

What was measured:
Assay in all cases: NCI-60 cell line screen, 48 h
[1] = system: KM12
[2] = system: ACHN
[3] = system: OVCAR-5
[4] = system: 786-0
[5] = system: T47D
[6] = system: HOP-62
[7] = system: HOP-92
[8] = system: RXF 393
[9] = system: NCI-H23
[10] = system: A549
[11] = system: DU-145
[12] = system: NCI-H226
[13] = system: K562
[14] = system: SK-MEL-28
[15] = system: PC-3
[16] = system: U-251
[17] = system: UACC-62
[18] = system: SK-MEL-5
[19] = system: Malme-3M
[20] = system: IGROV-1

SMILES | GI50 [1] | GI50 [2] | GI50 [3] | GI50 [4] | GI50 [5] | GI50 [6] | GI50 [7] | GI50 [8] | GI50 [9] | GI50 [10] | GI50 [11] | GI50 [12] | GI50 [13] | GI50 [14] | GI50 [15] | GI50 [16] | GI50 [17] | GI50 [18] | GI50 [19] | GI50 [20]
Cc1cc(C)n(C(=O)CSc2nnc(SCC(=O)n3nc(C)cc3C)s2)n1 | > 100 µM (inactive) | > 100 µM (inactive) | > 100 µM (inactive) | > 100 µM (inactive) | > 100 µM (inactive) | 80 µM (inactive) | > 100 µM (inactive) | > 100 µM (inactive) | > 100 µM (inactive) | > 100 µM (inactive) | > 100 µM (inactive) | > 100 µM (inactive) | > 100 µM (inactive) | > 100 µM (inactive) | > 100 µM (inactive) | > 100 µM (inactive) | > 100 µM (inactive) | > 100 µM (inactive) |  | 
O=CN1CCN(C(=O)c2ccc(Cl)cc2)C1=S | 12.7 µM (inactive) | 17.3 µM (inactive) | 17.4 µM (inactive) | 6.79 µM (inactive) | 12.8 µM (inactive) | 19.1 µM (inactive) | 0.714 µM (active) | 16.8 µM (inactive) | 23 µM (inactive) | 14.9 µM (inactive) | 15.7 µM (inactive) | 43.5 µM (inactive) | 12.9 µM (inactive) | 19.1 µM (inactive) | 15.7 µM (inactive) | 14.4 µM (inactive) | 15.9 µM (inactive) |  | 24.5 µM (inactive) | 14.2 µM (inactive)
CSc1ccc(NC(=O)CCl)cc1 | > 10 µM (inactive) | > 10 µM (inactive) | 3.33 µM (inactive) | 6.38 µM (inactive) | > 10 µM (inactive) | 3.52 µM (inactive) | 2.63 µM (inactive) | 3.17 µM (inactive) | 9.59 µM (inactive) | 2.44 µM (inactive) | > 10 µM (inactive) | > 10 µM (inactive) | 3.13 µM (inactive) | 5.7 µM (inactive) | 3.9 µM (inactive) | 5.19 µM (inactive) | 1.85 µM (inactive) | 2.08 µM (inactive) |  | 4.73 µM (inactive)
COc1cc(C2S/C(=C/c3ccccc3)C(=O)N2c2ccc(Cl)cc2)cc(OC)c1OC (stereo not drawn) | 11.3 µM (inactive) | 0.178 µM (active) | > 100 µM (inactive) | > 100 µM (inactive) | 0.705 µM (active) | 14.2 µM (inactive) | 5.92 µM (inactive) | 40.6 µM (inactive) | 12.7 µM (inactive) | 24.4 µM (inactive) | 54.2 µM (inactive) | > 89.1 µM (inactive) |  | 63.2 µM (inactive) | > 46.6 µM (inactive) | 37.7 µM (inactive) | 23.3 µM (inactive) | 0.492 µM (active) | 23.7 µM (inactive) | 13.5 µM (inactive)
C(#Cc1ccccc1)SC1=C(c2ccccc2)S/C(=C(\SC#Cc2ccccc2)c2ccccc2)S1 | > 100 µM (inactive) | > 100 µM (inactive) | > 100 µM (inactive) | > 100 µM (inactive) | > 100 µM (inactive) | > 100 µM (inactive) | > 100 µM (inactive) |  | > 100 µM (inactive) | > 100 µM (inactive) | > 100 µM (inactive) | > 100 µM (inactive) | > 100 µM (inactive) | > 100 µM (inactive) | > 100 µM (inactive) | > 100 µM (inactive) | > 100 µM (inactive) | > 100 µM (inactive) |  | > 100 µM (inactive)
O=c1oc(-c2ccc(O)cc2)cc2cc(O)ccc12 | 24.8 µM (inactive) | 34.9 µM (inactive) | 43.2 µM (inactive) | 39.4 µM (inactive) | 19.9 µM (inactive) | 34.8 µM (inactive) | 21.7 µM (inactive) | 23.5 µM (inactive) | 20.9 µM (inactive) | 41.5 µM (inactive) | 39 µM (inactive) |  | 13.2 µM (inactive) |  | 25.3 µM (inactive) |  |  | 11.2 µM (inactive) | 30.1 µM (inactive) | 19.9 µM (inactive)
N/C(=N\O)NCCN1CCCCCCC1 | > 100 µM (inactive) | 20.1 µM (inactive) | > 100 µM (inactive) | > 100 µM (inactive) | 80.9 µM (inactive) | > 100 µM (inactive) | > 100 µM (inactive) | > 100 µM (inactive) | > 100 µM (inactive) | > 100 µM (inactive) | > 100 µM (inactive) | > 100 µM (inactive) | > 100 µM (inactive) | > 100 µM (inactive) | 28.4 µM (inactive) |  | > 100 µM (inactive) | > 100 µM (inactive) | > 100 µM (inactive) | 26.7 µM (inactive)
CCOC(=O)/C=C(/C(=O)OCC)n1ccc(=O)n(Cc2cnnn2CCCCOC(C)=O)c1=O | > 100 µM (inactive) | 51.2 µM (inactive) | > 100 µM (inactive) | 18.5 µM (inactive) | > 100 µM (inactive) | > 100 µM (inactive) | 0.0305 µM (active) | > 100 µM (inactive) | > 100 µM (inactive) | > 100 µM (inactive) | > 100 µM (inactive) | > 100 µM (inactive) | 70.1 µM (inactive) | > 100 µM (inactive) | > 100 µM (inactive) | > 100 µM (inactive) | > 100 µM (inactive) | > 100 µM (inactive) |  | > 100 µM (inactive)
C1CCCCC2(CCCCCCCCC3(CCC1)SCCS3)SCCS2 | > 100 µM (inactive) | > 100 µM (inactive) | > 100 µM (inactive) | > 100 µM (inactive) | > 100 µM (inactive) | > 100 µM (inactive) | > 100 µM (inactive) |  | > 100 µM (inactive) | > 100 µM (inactive) | > 100 µM (inactive) | > 100 µM (inactive) | > 100 µM (inactive) | > 100 µM (inactive) | > 100 µM (inactive) | > 100 µM (inactive) | > 100 µM (inactive) | > 100 µM (inactive) | > 100 µM (inactive) | > 100 µM (inactive)
CC1(C)Cc2c(c3ccccc3c3nc4c(nc23)c2c(c3ccccc34)OC(C)(C)C2)O1 | > 100 µM (inactive) | > 100 µM (inactive) | > 100 µM (inactive) | > 100 µM (inactive) | > 100 µM (inactive) | > 100 µM (inactive) | > 100 µM (inactive) | > 100 µM (inactive) | > 100 µM (inactive) | > 100 µM (inactive) | > 100 µM (inactive) |  |  | > 100 µM (inactive) | > 100 µM (inactive) | > 100 µM (inactive) | > 100 µM (inactive) | > 100 µM (inactive) | > 100 µM (inactive) | > 100 µM (inactive)
O=C(O)C1CCCN(CCc2c[nH]c3ccccc23)C1 (stereo not drawn) | > 100 µM (inactive) | > 100 µM (inactive) | > 100 µM (inactive) | > 100 µM (inactive) | > 100 µM (inactive) | > 100 µM (inactive) | > 100 µM (inactive) | > 100 µM (inactive) | > 100 µM (inactive) | > 100 µM (inactive) | > 100 µM (inactive) | > 100 µM (inactive) | > 100 µM (inactive) | > 100 µM (inactive) | > 100 µM (inactive) | > 100 µM (inactive) | > 100 µM (inactive) |  | > 100 µM (inactive) | > 100 µM (inactive)
CC(C)=CCc1c(OC(=O)c2c(C)cc(O)cc2O)cc(CO)c(CO)c1O | 16.2 µM (inactive) | 14.4 µM (inactive) | 20.4 µM (inactive) | 31.4 µM (inactive) | 6.85 µM (inactive) |  | 17.7 µM (inactive) |  | 16.8 µM (inactive) | 6.43 µM (inactive) | 25.1 µM (inactive) | 34 µM (inactive) | 7.62 µM (inactive) | 18.5 µM (inactive) | 18 µM (inactive) | 17.5 µM (inactive) | 15.2 µM (inactive) | 14.8 µM (inactive) | 17.5 µM (inactive) | 19.2 µM (inactive)
Cc1nc(C)c(N2CCN(Cc3ccccc3)CC2)c(O)n1 | > 100 µM (inactive) | > 100 µM (inactive) |  | > 100 µM (inactive) | > 100 µM (inactive) | > 100 µM (inactive) | > 100 µM (inactive) | > 100 µM (inactive) | > 100 µM (inactive) | > 100 µM (inactive) | > 100 µM (inactive) | > 100 µM (inactive) | > 100 µM (inactive) | > 100 µM (inactive) | > 100 µM (inactive) | > 100 µM (inactive) | > 100 µM (inactive) | > 100 µM (inactive) | > 100 µM (inactive) | > 100 µM (inactive)
O=C(O)C(O)C(O)C(O)C(O)c1nc2ccccc2s1 (stereo not drawn) | 24.7 µM (inactive) | 17.7 µM (inactive) | 26.9 µM (inactive) | 16.8 µM (inactive) | 19.5 µM (inactive) | 18.3 µM (inactive) | 18.2 µM (inactive) | 18 µM (inactive) | 23.2 µM (inactive) | 18.2 µM (inactive) | 16.8 µM (inactive) | 29.8 µM (inactive) |  | 20.3 µM (inactive) | 15.3 µM (inactive) | 15.7 µM (inactive) | 15.3 µM (inactive) | 25.8 µM (inactive) | 15.5 µM (inactive) | 10.9 µM (inactive)
C[C@@H](NC(=O)CNC(=O)OC(C)(C)C)C(=O)N[C@@H](Cc1ccccc1)C(=O)OCc1ccccc1 (Boc-Gly-[dA]-Phe-OBn) | > 100 µM (inactive) | 57.9 µM (inactive) | > 100 µM (inactive) | 84.7 µM (inactive) | 63.4 µM (inactive) |  | 17.8 µM (inactive) | 32 µM (inactive) | > 100 µM (inactive) | > 100 µM (inactive) | > 100 µM (inactive) | 51.1 µM (inactive) | 23.1 µM (inactive) | 20.1 µM (inactive) | 49 µM (inactive) | 71.8 µM (inactive) | 34 µM (inactive) | 22.8 µM (inactive) | 16.2 µM (inactive) | 67.9 µM (inactive)
